For the compound `COC(=O)c1nc(N2CCOC2=O)c2cc(Cc3ccc(F)cc3)cnc2c1O`, the melting point is 256 °C (dec.). For the compound `COC(=O)c1nc(C(=O)NS(=O)(=O)c2ccccc2)c2cc(Cc3ccc(F)cc3)cnc2c1O`, the melting point is 228 to 229 °C. Take `COCCNC(=O)c1nc(C(=O)OC)c(O)c2ncc(Cc3ccc(F)cc3)cc12`: the melting point was in the range of 145 to 146 °C. With `CC(=O)N1CCC(OC(=O)c2nc(C#CCNS(C)(=O)=O)c3cc(Cc4ccc(F)cc4)cnc3c2O)CC1` the figure was 192 to 193 °C. Next, `COC(=O)c1nc(N2C(=O)COCC2=O)c2cc(Cc3ccc(F)cc3)cnc2c1O`: 182 to 184 °C; `CN(C)NC(=O)c1nc(C#CC2=CCCC2)c2cc(Cc3ccc(F)cc3)cnc2c1O`: 206 to 207 °C; `COCCNC(=O)c1nc(C#CCNS(C)(=O)=O)c2cc(Cc3ccc(F)cc3)cnc2c1O`: 198 °C. With `CN(C)NC(=O)c1nc(C#CCNS(C)(=O)=O)c2cc(Cc3ccc(F)cc3)cnc2c1O` the figure was 229 to 230 °C (dec.).

For `COC(=O)c1nc(NS(=O)(=O)NC(=O)OC(C)C)c2cc(Cc3ccc(F)cc3)cnc2c1O`, the melting point lay in the range of 170 to 172 °C.

The compound `COCCNC(=O)c1nc(NS(C)(=O)=O)c2cc(Cc3ccc(F)cc3)cnc2c1O` returned a melting point of 241 to 242 °C. Next, `COC(=O)c1cc(Br)c2cc(Cc3ccc(F)cc3)cnc2c1O`: 152 °C; `CCCOC(=O)c1cc(C(=O)O)c2cc(Cc3ccc(F)cc3)cnc2c1O`: 249 to 251 °C (dec.).

With `COCCOC(=O)c1cc(C(=O)O)c2cc(Cc3ccc(F)cc3)cnc2c1O`, the melting point was 234 to 235 °C (dec.).

The compound `CC(=O)c1cc(C(=O)O)c2cc(Cc3ccc(F)cc3)cnc2c1O` displayed a melting point of 239 to 242 °C.

The compound `COCCCC(=O)c1cc(C(=O)O)c2cc(Cc3ccc(F)cc3)cnc2c1O` gave a melting point of 226 to 228 °C.

`COC(=O)c1cc(NC(=O)C(F)(F)F)c2cc(Cc3ccc(F)cc3)cnc2c1O` showed a melting point of 191 to 192 °C.

`COC(=O)c1cc(NC(=N)N)c2cc(Cc3ccc(F)cc3)cnc2c1O.Cl` came in with a melting point of 261.5 to 262.5 °C. With `CCN(CCOC)C(=O)c1cc(C(=O)OC)c(O)c2ncc(Cc3ccc(F)cc3)cc12` the figure was 90 to 91 °C; with `COC(=O)c1cc(C(=O)NCCN)c2cc(Cc3ccc(F)cc3)cnc2c1O`, 229 to 230 °C. With `COC(=O)c1cc(Cc2cc(C(=O)OC)c(O)c3ncc(Cc4ccc(F)cc4)cc23)c2cc(Cc3ccc(F)cc3)cnc2c1O` the figure was 244 to 245 °C.

Regarding `COC(=O)c1cc(CC#N)c2cc(Cc3ccc(F)cc3)cnc2c1O`, the melting point lay in the range of 173 to 175 °C. For the compound `COC(=O)c1cc(CC(N)=O)c2cc(Cc3ccc(F)cc3)cnc2c1O`, the melting point is 209 to 211 °C. Next, `COC(=O)Cc1cc(C(=O)OC)c(O)c2ncc(Cc3ccc(F)cc3)cc12`: 168 to 169 °C. In the case of `COC(=O)c1cc(CC(=O)O)c2cc(Cc3ccc(F)cc3)cnc2c1O`, the melting point fell in the range of 218 to 220 °C. Next, `NC(=O)c1cc(C(=O)O)c2cc(Cc3ccc(F)cc3)cnc2c1O`: 212 to 213 °C; `CONC(=O)c1cc(C(=O)OC)c2cc(Cc3ccc(F)cc3)cnc2c1O`: 186 to 188 °C. Next, `COCCOC(=O)c1cc(C(=O)NOC)c(O)c2ncc(Cc3ccc(F)cc3)cc12`: 166 to 168 °C; `COCCNC(=O)c1cc(C(=O)OC)c2cc(Cc3ccc(F)cc3)cnc2c1O`: 165 to 167 °C. With `COC(=O)c1cc(CCC(=O)O)c2cc(Cc3ccc(F)cc3)cnc2c1O` the figure was 254 to 256 °C; with `COC(=O)CCc1cc(C(=O)OC)c(O)c2c1CC(Cc1ccc(F)cc1)CN2` (stereo not shown), 140 to 141 °C; with `COC(=O)c1cc(-c2ccccc2C(=O)O)c2cc(Cc3ccc(F)cc3)cnc2c1O`, 250 to 252 °C. As to `CCNC(=O)Nc1cc(C(=O)OC)c(O)c2ncc(Cc3ccc(F)cc3)cc12`, the melting point lay in the range of 280 to 282 °C. For the compound `COC(=O)c1cc(NC(=O)C2CCCCC2)c2cc(Cc3ccc(F)cc3)cnc2c1O`, the melting point was 250 to 251 °C.

Turning to `COC(=O)c1cc(NC(=O)c2ccccc2)c2cc(Cc3ccc(F)cc3)cnc2c1O`, the melting point was 247 to 249 °C. Next, `COC(=O)c1cc(NC(=O)Cc2ccc(F)cc2)c2cc(Cc3ccc(F)cc3)cnc2c1O`: 239 to 240 °C; `CNC(=S)Nc1cc(C(=O)OC)c(O)c2ncc(Cc3ccc(F)cc3)cc12`: 189 to 191 °C. For the compound `COC(=O)c1cc(NC(=O)c2ccc(Cl)cc2)c2cc(Cc3ccc(F)cc3)cnc2c1O`, the melting point is 253 to 254 °C.

`COC(=O)c1cc(N2CCOCC2)c2cc(Cc3ccc(F)cc3)cnc2c1O` yielded a melting point of 119 to 120 °C. With `COC(=O)c1cc(N2CCCCC2)c2cc(Cc3ccc(F)cc3)cnc2c1O` the figure was 133 to 134 °C; with `CCC(=O)c1cc(N2CCCC2=O)c2cc(Cc3ccc(F)cc3)cnc2c1O`, 202 to 203 °C. Next, `COC(=O)C(=O)Nc1cc(C(=O)OC)c(O)c2ncc(Cc3ccc(F)cc3)cc12`: 168 to 170 °C; `COC(=O)c1cc(NC(=O)c2cc(C)on2)c2cc(Cc3ccc(F)cc3)cnc2c1O`: 182 to 183 °C; `CC(=O)N1CCC(OC(=O)c2cc(C(=O)O)c3cc(Cc4ccc(F)cc4)cnc3c2O)CC1`: 230 to 232 °C. With `CC(=O)N1CCC(OC(=O)c2cc(C(=O)NN(C)C)c3cc(Cc4ccc(F)cc4)cnc3c2O)CC1` the figure was 92 to 93 °C; with `CC(=O)NNC(=O)c1cc(C(=O)OC2CCN(C(C)=O)CC2)c(O)c2ncc(Cc3ccc(F)cc3)cc12`, 129 to 131 °C. On to `COCCC(=O)Nc1cc(C(=O)OC2CCN(C(C)=O)CC2)c(O)c2ncc(Cc3ccc(F)cc3)cc12`, for which the melting point was in the range of 89 to 90 °C. With `COC(=O)c1cc(C#N)c2cc(Cc3ccc(F)cc3)cnc2c1O` the figure was 178 to 179 °C; with `COC(=O)c1cc(C(=O)Nc2nccs2)c2cc(Cc3ccc(F)cc3)cnc2c1O`, 258 to 259 °C; with `COC(=O)c1cc(C(=O)NCCN2CCOCC2)c2cc(Cc3ccc(F)cc3)cnc2c1O`, 198 to 199 °C. With `COC(=O)c1cc(C(=O)[O-])c2cc(Cc3ccc(F)cc3)cnc2c1O.[Na+]` the figure was greater than 208 °C. With `COC(=O)c1cc(C(=O)O)c2cc(Cc3ccc(F)cc3)cnc2c1O.NCCN` the figure was 164 °C; with `COC(=O)c1cc(C(=O)NCCC2CCOCC2)c2cc(Cc3ccc(F)cc3)cnc2c1O`, 198 to 199 °C. For the compound `COC(=O)c1cc(C(=O)NNS(C)(=O)=O)c2cc(Cc3ccc(F)cc3)cnc2c1O`, the melting point was greater than 250 °C. Next, `COC(=O)c1cc(C(=O)N2CCCOCC2)c2cc(Cc3ccc(F)cc3)cnc2c1O`: 136 to 137 °C; `COC(=O)c1cc(C(=O)N2CCSCC2)c2cc(Cc3ccc(F)cc3)cnc2c1O`: 184 to 185 °C. Next, `COC(=O)c1cc(C(=O)N2COCC2(C)C)c2cc(Cc3ccc(F)cc3)cnc2c1O`: 149 to 150 °C.

In turn, `COC(=O)c1cc(C(=O)NN2CCCCC2)c2cc(Cc3ccc(F)cc3)cnc2c1O` displayed a melting point of 233 to 234 °C.

As to `COC(=O)c1cc(C(=O)Nc2ccncn2)c2cc(Cc3ccc(F)cc3)cnc2c1O`, the melting point was in the range of 241 to 242 °C. Next, `COCC(=O)NNC(=O)c1cc(C(=O)OC)c(O)c2ncc(Cc3ccc(F)cc3)cc12`: 181 to 182 °C; `C#CCNC(=O)c1cc(C(=O)OC)c(O)c2ncc(Cc3ccc(F)cc3)cc12`: 192 to 193 °C; `COC(=O)c1cc(C(=O)N2CCC(C(N)=O)CC2)c2cc(Cc3ccc(F)cc3)cnc2c1O`: 235 to 238 °C. Next, `COC(=O)c1cc(C(=O)NCC(=O)O)c2cc(Cc3ccc(F)cc3)cnc2c1O`: 246 to 247 °C; `COC(=O)c1cc(C(=O)NC2CCCCC2)c2cc(Cc3ccc(F)cc3)cnc2c1O`: 212 to 213 °C; `COC(=O)c1cc(C(=O)NC2CCCC2)c2cc(Cc3ccc(F)cc3)cnc2c1O`: 221 to 222 °C. Next, `COC(=O)c1cc(C(=O)NN2CCOCC2)c2cc(Cc3ccc(F)cc3)cnc2c1O`: greater than 250 °C; `COC(=O)c1cc(C(=O)NNC(C)=O)c2cc(Cc3ccc(F)cc3)cnc2c1O`: 208 to 209 °C; `COC(=O)c1cc(C(=O)NNC=O)c2cc(Cc3ccc(F)cc3)cnc2c1O`: 249 to 250 °C. `COC(=O)c1cc(C(=O)NN(C)C)c2cc(Cc3ccc(F)cc3)cnc2c1O` came in with a melting point of 198 to 199 °C. Next, `COC(=O)c1cc(C(=O)NCCF)c2cc(Cc3ccc(F)cc3)cnc2c1O`: 216 to 217 °C; `COC(=O)c1cc(C(=O)NN)c2cc(Cc3ccc(F)cc3)cnc2c1O`: 156 to 157 °C. Next, `COC(=O)c1cc(C(=O)NCC(N)=O)c2cc(Cc3ccc(F)cc3)cnc2c1O`: 247 to 248 °C.

As for `COC(=O)c1cc(C(=O)NCCOC(C)C)c2cc(Cc3ccc(F)cc3)cnc2c1O`, the melting point lay in the range of 175 to 176 °C. With `COC(=O)c1cc(C(=O)NCCOc2ccccc2)c2cc(Cc3ccc(F)cc3)cnc2c1O` the figure was 194 to 195 °C; with `COC(=O)CNC(=O)c1cc(C(=O)OC)c(O)c2ncc(Cc3ccc(F)cc3)cc12`, 209 to 210 °C. The compound `COC(=O)c1cc(C(=O)NC(C)(C)CO)c2cc(Cc3ccc(F)cc3)cnc2c1O` displayed a melting point of 204 to 205 °C.

Consider `COC(=O)c1cc(C(=O)NNC(=O)c2ccccc2)c2cc(Cc3ccc(F)cc3)cnc2c1O`, for which the melting point lay within 227 to 229 °C. With `COC(=O)c1cc(C(=O)N2CCC(CO)CC2)c2cc(Cc3ccc(F)cc3)cnc2c1O` the figure was 161 to 162 °C; with `CNNC(=O)c1cc(C(=O)OC)c(O)c2ncc(Cc3ccc(F)cc3)cc12`, 188 to 189 °C. Next, `CCOC(=O)c1cc(C(=O)O)c2cc(Cc3ccc(F)cc3)cnc2c1O`: 238 to 239 °C.

One may read the melting point as the temperature of the solid-liquid transition.
